Measurements from patent publication US20160137639A1, “TRIAZOLE-ISOXAZOLE COMPOUND AND MEDICAL USE THEREOF” (JAPAN TOBACCO INC., priority 2012, published 2016).
Where two headings read alike, the source gives them in different places.

What was measured:
[1] = target: T1, human RORγ (Homo sapiens, UniProt P51449); experiment: Luciferase reporter gene assay of inhibitory effect against RORγ transcriptional activity (GAL4-hRORγ plasmid in CHO cells); format: cell-based
T1 construct: human, NM_005060.3 and from Ser253 to Lys518; expressed in transfected cells; host or cells: CHO cells (transient co-transfection with pG5-Luc reporter)
T1 sequence (P51449 253-518): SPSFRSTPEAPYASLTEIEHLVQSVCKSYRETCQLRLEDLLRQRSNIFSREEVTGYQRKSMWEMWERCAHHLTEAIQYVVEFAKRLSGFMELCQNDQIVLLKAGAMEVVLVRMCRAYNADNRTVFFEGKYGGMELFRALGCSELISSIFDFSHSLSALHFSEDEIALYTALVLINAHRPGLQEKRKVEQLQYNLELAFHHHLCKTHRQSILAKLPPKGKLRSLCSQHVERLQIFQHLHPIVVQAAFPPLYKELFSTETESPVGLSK

[2] = target: T2, mouse RORγ (Mus musculus, UniProt P51450); experiment: Luciferase reporter gene assay of inhibitory effect against RORγ transcriptional activity (GAL4-mRORγ plasmid in CHO cells); format: cell-based
T2 construct: mouse, NM_011281.2 and from Ile251 to Lys516; expressed in transfected cells; host or cells: CHO cells (transient co-transfection with pG5-Luc reporter)
T2 sequence (P51450 251-516): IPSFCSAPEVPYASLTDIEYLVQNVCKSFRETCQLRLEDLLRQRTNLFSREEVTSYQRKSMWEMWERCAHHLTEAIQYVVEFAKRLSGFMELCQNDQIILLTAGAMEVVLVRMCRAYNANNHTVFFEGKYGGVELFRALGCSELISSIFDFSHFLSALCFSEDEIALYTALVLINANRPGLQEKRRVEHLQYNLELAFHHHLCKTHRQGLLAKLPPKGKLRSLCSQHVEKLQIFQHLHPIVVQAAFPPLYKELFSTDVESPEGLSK
In short: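 Readout is intracellular luciferase after 2-day compound exposure (8 concentrations, 0.1% DMSO) in CHO cells expressing GAL4 fused to mouse RORγ LBD residues Ile251–Lys516 plus pG5-Luc reporter. EC50 fitted from %-of-control; points showing resazurin-detected cytotoxicity dropped.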

SMILES	EC50 ([1]; read-out: LUC EC50 (μM) hRORg) [µM]	EC50 ([2]; read-out: LUC EC50 (μM) mRORg) [µM]	EC50 ([1]; read-out: LUC EC50 hRORg) [µM]	EC50 ([2]; read-out: LUC EC50 mRORg) [µM]
Cc1ccc(NC(=O)CC(Cc2nccs2)c2nnc([C@H]3C[C@@H](CC(C)C)C3)n2C2CC2)c(C)c1 (mixture of isomers) [Example F-439]	< 3	< 3		
Cc1ccc(NC(=O)CC(CC#N)c2nnc(CCCC(C)(C)C)n2C2CC2)c(C)c1 (racemic) [Example F-440]	< 3	< 3		
CNC(=O)N1C[C@H](C(=O)Nc2ccc(C)cc2C)[C@@H](c2nnc(CCCC(C)(C)C)n2C2CC2)C1 (racemic) [Example F-446]	< 3	< 3		
Cc1ccc(NC(=O)[C@H]2CN(C(=O)N(C)C)C[C@@H]2c2nnc(CCCC(C)(C)C)n2C2CC2)c(C)c1 (racemic) [Example F-447]	< 3	< 3		
Cc1ccc(NC(=O)[C@H]2CN(c3nc(C)cs3)C[C@@H]2c2nnc(CCCC(C)(C)C)n2C2CC2)c(C)c1 (racemic) [Example F-448]	< 3	< 3		
Cc1ccc(NC(=O)[C@H]2CNC[C@@H]2c2nnc(CCCC(C)(C)C)n2C2CC2)c(C)c1 (racemic) [Example F-449]	> 3	> 3		
Cc1ccc(NC(=O)CC(Cc2cc(O)no2)c2nnc([C@H]3C[C@@H](CC(C)C)C3)n2C2CC2)c(C)c1 (mixture of isomers) [Example F-450]	< 3	< 3		
CC(=O)N1C[C@H](C(=O)Nc2ccc(C)cc2C)[C@@H](c2nnc(C3CC4(CCCCC4)C3)n2C2CC2)C1 (racemic) [Example F-452]	< 3	< 3		
Cc1ccc(NC(=O)CC(c2nnc(CCCC(C)(C)C)n2C2CC2)C(C)C)c(C)c1 (racemic) [Example F-453]	< 3	< 3		
Cc1ccc(NC(=O)CC(Cc2ncco2)c2nnc([C@H]3C[C@@H](CC(C)C)C3)n2C2CC2)c(C)c1 (mixture of isomers) [Example F-454]	< 3	< 3		
Cc1ccc(NC(=O)CC(CCOCc2ccccc2)c2nnc(-c3cc(CC(C)C)on3)n2C2CC2)c(C)c1 (racemic) [Example F-455]	> 3	< 3		
Cc1ccc(NC(=O)CC(c2nnc([C@H]3C[C@@H](CC(C)C)C3)n2C2CC2)C2CN(C(=O)OCc3ccccc3)C2)c(C)c1 (mixture of isomers) [Example F-459]	< 3	< 3		
Cc1ccc(NC(=O)CC(c2nnc([C@H]3C[C@@H](CC(C)C)C3)n2C2CC2)C2CNC2)c(C)c1 (mixture of isomers) [Example F-468]	> 3	> 3		
Cc1ccc(NC(=O)CC(c2nnc([C@H]3C[C@@H](CC(C)C)C3)n2C2CC2)C2CN(C)C2)c(C)c1 (mixture of isomers) [Example F-469]	> 3	> 3		
Cc1ccc(NC(=O)CC(Cc2nc(=O)o[nH]2)c2nnc([C@H]3C[C@@H](CC(C)C)C3)n2C2CC2)c(C)c1 (mixture of isomers) [Example F-472]	< 3	< 3		
Cc1ccc(NC(=O)CC(Cc2nnn[nH]2)c2nnc([C@H]3C[C@@H](CC(C)C)C3)n2C2CC2)c(C)c1 (mixture of isomers) [Example F-481]	> 3	> 3		
Cc1ccc(NC(=O)CC(CCOC(=O)N(C)C)c2nnc([C@H]3C[C@@H](CC(C)C)C3)n2C2CC2)c(C)c1 (mixture of isomers) [Example F-484]	< 3	< 3		
Cc1ccc(NC(=O)CC(Cc2nc(=O)on2C)c2nnc([C@H]3C[C@@H](CC(C)C)C3)n2C2CC2)c(C)c1 (mixture of isomers) [Example F-485]	< 3	< 3		
Cc1ccc(NC(=O)C(C)C(CCOCc2ccccc2)c2nnc([C@H]3C[C@@H](CC(C)C)C3)n2C2CC2)c(C)c1 (mixture of isomers) [Example F-488]	> 3	< 3		
Cc1ccc(NC(=O)CC(CO)c2nnc(CCCC(C)(C)C)n2C2CC2)c(C)c1 (racemic) [Example F-497]			< 3	< 3

SMILES	EC50 ([1]; read-out: LUC EC50 (μM) hRORg) [µM]	EC50 ([2]; read-out: LUC EC50 (μM) mRORg) [µM]	EC50 ([1]; read-out: LUC EC50 hRORg) [µM]	EC50 ([2]; read-out: LUC EC50 mRORg) [µM]
Cc1ccc(NC(=O)CC(CC(=O)OC(C)(C)C)c2nnc([C@H]3C[C@@H](CC(C)C)C3)n2C2CC2)c(C)c1 (mixture of isomers) [Example F-498]			< 3	< 3
Cc1ccc(NC(=O)CC(CC(=O)O)c2nnc([C@H]3C[C@@H](CC(C)C)C3)n2C2CC2)c(C)c1 (mixture of isomers) [Example F-499]			> 3	< 3
Cc1ccc(NC(=O)CC(CC(=O)N(C)C)c2nnc([C@H]3C[C@@H](CC(C)C)C3)n2C2CC2)c(C)c1 (mixture of isomers) [Example F-500]			< 3	< 3
Cc1ccc(NC(=O)CC(CC(=O)N2CCCC2)c2nnc([C@H]3C[C@@H](CC(C)C)C3)n2C2CC2)c(C)c1 (mixture of isomers) [Example F-501]			< 3	< 3
COc1cccc(CC(CC(=O)Nc2ccc(C)cc2C)c2nnc([C@H]3C[C@@H](CC(C)C)C3)n2C2CC2)n1 (mixture of isomers) [Example F-504]			< 3	< 3
Cc1ccc(NC(=O)CC(Cc2cccc(=O)[nH]2)c2nnc([C@H]3C[C@@H](CC(C)C)C3)n2C2CC2)c(C)c1 (mixture of isomers) [Example F-505]			< 3	> 3
Cc1ccc(NC(=O)CC(CN2C(=O)N(C)C(C)(C)C2=O)c2nnc(CCCC(C)(C)C)n2C2CC2)c(C)c1 (racemic) [Example F-508]			> 3	> 3
C=CCC(CC(=O)Nc1ccc(C)cc1C)c1nnc([C@H]2C[C@@H](CC(C)C)C2)n1C1CC1 (mixture of isomers) [Example F-509]			< 3	< 3
C=C1C[C@H](C(=O)Nc2ccc(C)cc2C)[C@@H](c2nnc([C@H]3C[C@@H](CC(C)C)C3)n2C2CC2)C1 (racemic) [Example F-517]			< 3	< 3
Cc1ccc(NC(=O)[C@H]2CN(S(=O)(=O)C(F)(F)F)C[C@@H]2c2nnc(CCCC(C)(C)C)n2C2CC2)c(C)c1 (racemic) [Example F-527]			< 3	< 3
Cc1ccc(NC(=O)CC(c2nnc([C@H]3C[C@@H](CC(C)C)C3)n2C2CC2)C(C)O)c(C)c1 (mixture of isomers) [Example F-529]			< 3	< 3
Cc1ccc(NC(=O)[C@H]2CC(=O)C[C@@H]2c2nnc([C@H]3C[C@@H](CC(C)C)C3)n2C2CC2)c(C)c1 (racemic) [Example F-533]			< 3	< 3
Cc1ccc(NC(=O)[C@H]2CC(O)(C(F)(F)F)C[C@@H]2c2nnc([C@H]3C[C@@H](CC(C)C)C3)n2C2CC2)c(C)c1 (mixture of isomers) [Example F-545]			< 3	< 3
Cc1ccc(NC(=O)[C@H]2CC(F)(F)C[C@@H]2c2nnc(-c3cc(CC(C)C)on3)n2C2CC2)c(C)c1 (racemic) [Example F-570]			< 3	> 3
Cc1ccc(NC(=O)[C@H]2CN(C)CC[C@@H]2c2nnc([C@H]3C[C@@H](CC(C)C)C3)n2C2CC2)c(C)c1 (racemic) [Example F-583]			< 3	< 3
Cc1ccc(NC(=O)CC(c2nnc([C@H]3C[C@@H](CC(C)C)C3)n2C2CC2)C(F)(F)CO)c(C)c1 (mixture of isomers) [Example F-617]			< 3	< 3
Cc1ccc(NC(=O)C[C@H](CCC(=O)O)c2nnc([C@H]3C[C@@H](CC(C)(C)C(C)C)C3)n2C2CC2(F)F)c(Cl)c1 (mixture of isomers) [Example F-714]			< 3	< 3
Cc1ccc(NC(=O)CCc2noc(C(O)c3cc(C(C)(C)C)no3)c2C2CC2)c(Cl)c1 (racemic) [Example F-744]			> 3	< 3
CC(=O)N1C[C@H](C(=O)Nc2ccc(C)cc2C)[C@@H](c2nnc(CCC3CC3(C)C)n2C2CC2)C1 (single isomer, unassigned) [Example F-328]	< 3	< 3		
